# Values quoted from earlier work as cited in US11083748B2 (priority 2003, dated 2021).
# Legend:
# [1] = in vivo, iv
# patients = details: human, in vivo
compound,measurement,setting,value
"O=C(O)CN(CCN(CC(=O)O)CC(=O)O)CC(=O)O [EDTA, ethylenediamine tetraacetic acid]",fraction of the drug remaining one hour following administration,[1],one-half
same,half-life,[1],20 to 60 min
"CC(C)(S)[C@@H](N)C(=O)O [Penicillamine, beta,beta-dimethylcysteine]",solubility in water,,freely soluble
"O=C(O)C(S)C(S)C(=O)O (stereo not shown) [Succimer, dimercaptosuccinic acid]",patients with drug-induced elevations of liver transaminases (mild and transient),patients,up to 10%
